Values after ≈ are worked out from the molar mass of the structure shown. Blank lines part the entries; values can stand above or below the compound they belong to.
How the values were obtained:
[1] = target: T1, Induced myeloid leukemia cell differentiation protein Mcl-1 (Homo sapiens, UniProt Q07820)
Bcl-2-like protein 1 [2] = target: T2, Bcl-2-like protein 1 (Homo sapiens, UniProt Q07817); assay: Binding affinity to Bcl-XL (unknown origin) assessed as inhibition constant by fluorescence polarization assay
[3] = target: T1, Induced myeloid leukemia cell differentiation protein Mcl-1; remark: listed apart in the source
Description: Inhibition of N-terminal GST-tagged human MCL-1 (1 to 23 residues) extracted from Escherichia coli BL21 (DE3) by TR-FRET assay

Bcl-2-like protein 1 [4] = target: T2, Bcl-2-like protein 1
[5] = target: T1, Induced myeloid leukemia cell differentiation protein Mcl-1; remark: listed apart in the source
Description: Binding affinity to MCL-1 (unknown origin) assessed as inhibition constant by TR-FRET assay

Bcl-2-like protein 1 [6] = target: T2, Bcl-2-like protein 1; assay: Binding affinity to BCL-XL (unknown origin) assessed as inhibition constant incubated for 60 mins by TR-FRET assay
[7] = target: T3, Apoptosis regulator Bcl-2 (Homo sapiens, UniProt P10415); assay: Binding affinity to BCL-2 (unknown origin) assessed as inhibition constant incubated for 60 mins by TR-FRET assay
MV4-11 [8] = assay: Antiproliferative activity against human MV4-11 cells
NCI-H929 [9] = assay: Antiproliferative activity against human NCI-H929 cells assessed as reduction in cell viability
OPM-2 = assay: Antiproliferative activity against human OPM-2 cells
[10] = Solubility of compound in water at pH 7 measured after 24 hrs by HPLC analysis
[11] = target: T1, Induced myeloid leukemia cell differentiation protein Mcl-1; remark: listed apart in the source
Description: Binding affinity to MCL-1 (unknown origin) assessed as inhibition constant

[12] = target: T3, Apoptosis regulator Bcl-2
Description: Binding affinity to BCL-2 (unknown origin) as assessed as inhibition constant

in vivo = details: mouse
[13] = Clearance in mouse at 1 mg/kg, iv; details: in vivo
NCI-H929 [14] = assay: Growth inhibition of human NCI-H929 cells
[15] = target: Voltage-gated inwardly rectifying potassium channel KCNH2 (Homo sapiens, UniProt Q12809)
Bcl-2-like protein 1 [16] = target: T2, Bcl-2-like protein 1; assay: Binding affinity to BCL-XL (unknown origin) assessed as inhibition constant
[17] = target: T1, Induced myeloid leukemia cell differentiation protein Mcl-1; remark: listed apart in the source
[18] = target: T1, Induced myeloid leukemia cell differentiation protein Mcl-1; assay: Binding affinity to N-terminal MCL-1 (unknown origin) using 5-FAM peptide as substrate by fluorescence polarization assay
HL-60 [19] = assay: Cytotoxicity against human HL-60 cells assessed as reduction in cell viability incubated for 48 hrs by CCK-8 assay; details: HL-60, 48 h
Bcl-2-like protein 1 [20] = target: T2, Bcl-2-like protein 1; remark: listed apart in the source
Description: Inhibition of Bcl-XL (unknown origin) by FRET assay

[21] = target: T1, Induced myeloid leukemia cell differentiation protein Mcl-1; remark: listed apart in the source
Description: Inhibition of MCL-1 (unknown origin)

[22] = Antiproliferative activity against human BL-2 cells; details: BL2
[23] = target: T1, Induced myeloid leukemia cell differentiation protein Mcl-1; remark: listed apart in the source
Description: Binding affinity to MCL-1 (unknown origin) assessed as inhibition constant by fluorescence polarization assay

HL-60 [24] = assay: Growth inhibition of human HL-60 cells
MV4-11 [25] = assay: Antiproliferative activity against human MV4-11 cells assessed as reduction in cell viability
[26] = target: T3, Apoptosis regulator Bcl-2; remark: listed apart in the source
Description: Inhibition of Bcl-2 (unknown origin) by fluorescence polarization assay

MOLP-8 = assay: Antiproliferative activity against human MOLP8 cells

T3 sequence (P10415 whole entry): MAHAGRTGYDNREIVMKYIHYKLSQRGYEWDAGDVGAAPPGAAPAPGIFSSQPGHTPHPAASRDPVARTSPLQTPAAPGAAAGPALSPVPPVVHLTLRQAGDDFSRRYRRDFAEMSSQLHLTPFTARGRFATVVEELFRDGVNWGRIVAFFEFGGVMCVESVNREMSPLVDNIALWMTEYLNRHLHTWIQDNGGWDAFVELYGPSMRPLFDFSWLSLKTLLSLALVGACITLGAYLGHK
Chain of Voltage-gated inwardly rectifying potassium channel KCNH2 (Q12809 whole entry): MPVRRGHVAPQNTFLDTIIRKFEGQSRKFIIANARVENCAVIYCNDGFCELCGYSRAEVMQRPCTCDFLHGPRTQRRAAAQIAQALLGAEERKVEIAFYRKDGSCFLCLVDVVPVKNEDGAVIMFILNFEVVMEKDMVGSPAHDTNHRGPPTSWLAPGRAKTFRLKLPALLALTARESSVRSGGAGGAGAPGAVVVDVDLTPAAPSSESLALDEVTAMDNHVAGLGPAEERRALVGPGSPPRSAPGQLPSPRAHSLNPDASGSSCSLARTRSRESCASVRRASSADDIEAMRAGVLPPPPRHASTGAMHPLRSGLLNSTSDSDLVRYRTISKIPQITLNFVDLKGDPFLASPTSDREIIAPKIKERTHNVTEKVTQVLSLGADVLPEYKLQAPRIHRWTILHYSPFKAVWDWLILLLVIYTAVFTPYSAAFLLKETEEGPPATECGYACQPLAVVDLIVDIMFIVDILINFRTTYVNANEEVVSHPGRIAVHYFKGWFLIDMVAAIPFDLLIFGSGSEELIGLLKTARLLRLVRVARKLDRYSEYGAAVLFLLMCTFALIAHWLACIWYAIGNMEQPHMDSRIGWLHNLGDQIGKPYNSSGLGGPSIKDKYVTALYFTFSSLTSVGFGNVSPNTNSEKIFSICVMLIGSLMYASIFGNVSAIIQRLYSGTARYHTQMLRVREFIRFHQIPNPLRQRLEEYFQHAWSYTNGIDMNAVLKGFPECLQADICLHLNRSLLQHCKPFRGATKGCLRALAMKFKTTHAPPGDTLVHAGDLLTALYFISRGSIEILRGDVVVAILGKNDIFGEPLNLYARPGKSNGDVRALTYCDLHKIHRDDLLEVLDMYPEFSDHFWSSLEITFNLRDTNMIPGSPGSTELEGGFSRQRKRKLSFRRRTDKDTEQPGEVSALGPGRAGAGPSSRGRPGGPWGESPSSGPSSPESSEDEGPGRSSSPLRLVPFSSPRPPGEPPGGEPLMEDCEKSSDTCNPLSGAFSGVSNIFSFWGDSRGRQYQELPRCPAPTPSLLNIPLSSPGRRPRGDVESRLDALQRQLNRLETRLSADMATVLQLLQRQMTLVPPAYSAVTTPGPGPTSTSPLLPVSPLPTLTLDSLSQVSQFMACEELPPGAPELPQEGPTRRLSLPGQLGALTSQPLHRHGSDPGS
T1 sequence (Q07820 whole entry): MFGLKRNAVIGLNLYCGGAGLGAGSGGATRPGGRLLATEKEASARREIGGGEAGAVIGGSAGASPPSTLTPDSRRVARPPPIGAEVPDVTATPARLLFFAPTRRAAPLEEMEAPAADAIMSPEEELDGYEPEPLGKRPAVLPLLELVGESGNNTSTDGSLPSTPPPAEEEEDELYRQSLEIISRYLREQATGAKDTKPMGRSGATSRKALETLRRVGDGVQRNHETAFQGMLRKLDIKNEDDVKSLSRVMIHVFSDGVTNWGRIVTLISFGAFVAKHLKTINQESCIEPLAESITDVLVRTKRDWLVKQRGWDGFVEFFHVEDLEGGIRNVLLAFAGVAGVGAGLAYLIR
T2 sequence (Q07817 whole entry): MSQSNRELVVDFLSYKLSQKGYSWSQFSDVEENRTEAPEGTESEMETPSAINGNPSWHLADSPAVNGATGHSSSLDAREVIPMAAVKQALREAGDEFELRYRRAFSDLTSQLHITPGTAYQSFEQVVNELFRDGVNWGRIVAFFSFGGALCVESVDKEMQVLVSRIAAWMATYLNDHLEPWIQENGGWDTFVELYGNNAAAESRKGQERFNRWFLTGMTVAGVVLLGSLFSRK

IC50 [1]: 14 nM
Compound: Cc1ccc(S(=O)(=O)/N=C2/C=C(Sc3nc[nH]n3)C(=O)c3ccccc32)cc1

Ki (Bcl-2-like protein 1 [2]): 290 nM
Compound: CC(C)c1ccccc1Cc1cc(C(=O)Nc2ccc(S(=O)(=O)c3ccccc3C(C)(C)C)cc2)c(O)c(O)c1O

Compound: O=C(c1ccccc1O)c1[nH]c(Cl)c(Cl)c1-n1c(C(=O)c2ccccc2O)cc(Cl)c1Cl
IC50 [3]: 10100 nM | IC50 (Bcl-2-like protein 1 [4]): > 100000 nM

IC50 (Bcl-2-like protein 1 [4]): > 100000 nM
Compound: O=C(O)CSc1ccc(C(=O)c2[nH]c(Cl)c(Cl)c2-n2c(C(=O)c3ccc(SCC(=O)O)cc3O)cc(Cl)c2Cl)c(O)c1

IC50 (Bcl-2-like protein 1 [4]): > 50000 nM
Compound: O=C(O)Cn1cc(-c2cc(O)c(C(=O)c3[nH]c(Cl)c(Cl)c3-n3c(C(=O)c4cc(Cl)c(-c5cn(CC(=O)O)nn5)cc4O)cc(Cl)c3Cl)cc2Cl)nn1

Ki [5]: 1 nM
Compound: Cc1nn(C)c(C)c1-c1cccc2c(CCCOc3cccc4ccccc34)c(C(=O)O)n(CCN3CCOCC3)c12

Ki (Bcl-2-like protein 1 [6]): > 660 nM | Ki [7]: 132 nM | EC50 (MV4-11 [8]): 1860 nM
Compound: Cc1nn(C)c(COc2ccc(N3CCN(S(=O)(=O)N(C)C)CC3)cc2)c1-c1cccc2c(CCCOc3cccc4ccccc34)c(C(=O)O)n(CCN3CCOCC3)c12

Ki [5]: 1 nM
Compound: CC(=O)N1CCN(c2ccc(OCc3nn(C)c(C)c3-c3cccc4c(CCCOc5cccc6ccccc56)c(C(=O)O)n(Cc5cccnc5)c34)cc2)CC1

IC50 [1]: 4200 nM
Compound: Cc1c(-c2cccc3c(CCCOc4cccc5ccccc45)c(C(=O)O)n(C)c23)c(COc2ccc(B(O)O)c(C=O)c2)nn1C

IC50 (NCI-H929 [9]): 1 nM
Compound: Cc1c(-c2c(-c3ccc(F)o3)sc3ncnc(O[C@H](Cc4ccccc4OCc4ccnn4CC(F)(F)F)C(=O)O)c23)ccc(OCCN2CCN(C)CC2)c1Cl

IC50 (NCI-H929 [9]): 1 nM
Compound: COc1ccccc1-c1nccc(COc2ccccc2C[C@@H](Oc2ncnc3sc(-c4ccc(F)cc4)c(-c4ccc(OCCN5CCN(C)CC5)c(Cl)c4C)c23)C(=O)O)n1

solubility at 24 h [10]: < 0.1 µM
Compound: CO[C@H]1/C=C/C[C@H](C)[C@@H](C)S(=O)(=O)NC(=O)c2ccc3c(c2)N(C[C@@H]2CCO[C@H]21)C[C@@]1(CCCc2cc(Cl)ccc21)CO3
IC50 (OPM-2): 432 nM

solubility at 24 h [10]: 8.3 µM (≈ 5.37 µg/mL)
Compound: CO[C@H]1/C(F)=C/C[C@H](C)[C@@H](C)S(=O)(=O)NC(=O)c2ccc3c(c2)N(C[C@@H]2CCO[C@H]21)C[C@@]1(CCCc2cc(Cl)ccc21)CO3
IC50 (OPM-2): 191 nM

solubility at 24 h [10]: 11.2 µM (≈ 7.25 µg/mL)
Compound: CO[C@@H]1/C(F)=C/C[C@H](C)[C@@H](C)S(=O)(=O)NC(=O)c2ccc3c(c2)N(C[C@@H]2CCO[C@H]21)C[C@@]1(CCCc2cc(Cl)ccc21)CO3
IC50 (OPM-2): 1120 nM

IC50 [1]: 4200 nM
Compound: Cc1c(-c2cccc3c(CCCOc4cccc5ccccc45)c(C(=O)O)n(C)c23)c(COc2ccccc2)nn1C

Ki [11]: 400 nM | Ki [12]: 560 nM
Compound: Cc1cc(OCCCn2cc(-c3cccc(C(F)(F)F)c3)c3cc(C(=O)O)ccc32)cc(C)c1Cl

half-life (in vivo): 34.2 min | clearance [13]: 245 mL/min/kg | Ki [5]: < 0.1 nM | GI50 (NCI-H929 [14]): 300 nM
Compound: Cc1cc(Cl)cc(C)c1OCCCc1c2n(c3c(-c4c(C)nn(C)c4C)c(Cl)ccc13)CCCN(c1cn(C)c3ccc(C(=O)O)cc13)C2=O

IC50 [1]: 4200 nM
Compound: C#Cc1ccc(OCc2nn(C)c(C)c2-c2cccc3c(CCCOc4cccc5ccccc45)c(C(=O)O)n(C)c23)cc1C=O

Compound: CCOP(=O)(OCC)c1ccc(C(=O)c2[nH]c(Cl)c(Cl)c2-n2c(C(=O)c3ccc(P(=O)(OCC)OCC)cc3O)cc(Cl)c2Cl)c(O)c1
IC50 (Bcl-2-like protein 1 [4]): > 100000 nM

Ki (Bcl-2-like protein 1 [6]): 0.02 nM | solubility at 24 h [10]: 550 µM (≈ 475 µg/mL)
Compound: COCCOCc1nn(C)c2c1CSCc1cc(n(C)n1)CSc1cc(c3ccc(F)cc3c1)OCCCc1c(C(=O)O)n(CCN3CCOCC3)c3c-2c(Cl)ccc13
IC50 [15]: > 30000 nM

Compound: Cc1c(-c2cccc3c(CCCOc4cccc5ccccc45)c(C(=O)O)n(C)c23)c(COc2ccc(S(=O)(=O)F)cc2)nn1C
IC50 [1]: 4200 nM

Ki [5]: 0.097 nM | GI50 (NCI-H929 [14]): 190 nM
Compound: Cc1cc(Cl)cc(C)c1OCCCc1c2n(c3c(-c4c(C)nn(C)c4C)c(Cl)ccc13)[C@H](C)CCN(c1cn(C)c3ccc(C(=O)O)cc13)C2=O

IC50 [11]: 0.05 nM
Compound: CC[C@@H]1CC/C=C/[C@H](O)[C@@H]2CC[C@H]2CN2C[C@@]3(CCc4cc(Cl)ccc43)COc3ccc(cc32)C(=O)NS1(=O)=O

Ki (Bcl-2-like protein 1 [6]): 0.018 nM | solubility at 24 h [10]: 580 µM (≈ 443 µg/mL)
Compound: COCCOCc1nn(C)c2c1CSCc1cc(n(C)n1)CSc1cc(c3ccc(F)cc3c1)OCCCc1c(C(=O)O)n(C)c3c-2c(Cl)ccc13
IC50 [15]: > 30000 nM

Ki (Bcl-2-like protein 1 [16]): > 660 nM | Ki [11]: 5.54 nM | Ki [12]: > 1200 nM
Compound: COc1ccccc1-c1nccc(COc2ccc3cc2C[C@H](C(=O)O)Oc2ncnc4sc(-c5ccc(F)cc5)c(c24)-c2ccc(c(Cl)c2C)CN(CCN2CCN(C)CC2)CO3)n1

Ki [11]: 410 nM | Ki [12]: 2380 nM
Compound: O=C(O)CCn1cc(-c2cccc(C(F)(F)F)c2)c2ccc(-c3ccccc3)cc21

Ki (Bcl-2-like protein 1 [6]): 0.015 nM | solubility at 24 h [10]: 3140 µM (≈ 2340 µg/mL)
Compound: COCCOCn1nc(C)c2c1CSCc1cc(n(C)n1)CCc1cc(c3ccc(F)cc3c1)OCCCn1c(C(=O)O)c(C)c3c-2c(Cl)ccc31
IC50 [15]: > 30000 nM

Compound: CC(C)CN1C[C@@H](c2ccc(Cl)cc2Cl)Oc2ccc(C(=O)O)cc21
IC50 [17]: 55000 nM

solubility at 24 h [10]: 520 µM (≈ 393 µg/mL)
Compound: COc1n[nH]cc1C(=O)NS1(=O)=NC(=O)c2ccc3c(c2)N(C[C@@H]2CCO[C@H]2[C@H](OC)/C(F)=C/C[C@H](C)C1)C[C@@]1(CCCc2cc(Cl)ccc21)CO3 (some centres not stated)
IC50 (OPM-2): 44 nM

Ki [18]: 490 nM
Compound: Cc1ccc(Oc2ccc(O)c(O)c2)c(-c2ccsc2S(=O)(=O)NCCNC(=O)Nc2cc(C(F)(F)F)cc(C(F)(F)F)c2)c1
IC50 (HL-60 [19]): 3700 nM

IC50 (Bcl-2-like protein 1 [20]): 3 nM | IC50 [21]: 8 nM
Compound: Cc1cc(S(=O)(=O)NC(=O)c2cc(C)c(-c3cccc4c(CCCOc5cccc6ccccc56)c(C(=O)O)nn34)c(C)c2)ccc1N[C@H](CCN(C)C)CSc1ccccc1

Ki [23]: 300 nM
Compound: CC1(C)CC[C@@H](OC(=O)/C=C/c2ccccc2)[C@]2(C)C(C=O)C(C=O)=C[C@H](O)[C@@]12C (some centres not stated)
IC50 [22]: 4000 nM | IC50 [15]: > 10000 nM

IC50 (NCI-H929 [9]): 40 nM | Ki [5]: 0.01 nM
Compound: Cc1c(Cl)c2c(Cl)c(C)c1-c1c(-c3ccc(F)cc3)sc3ncnc(c13)O[C@@H](C(=O)O)Cc1cc(ccc1OCc1ccnc(-c3ccc(OC[C@H]4COCCO4)cc3)n1)OCC(CN1CCN(C)CC1)O2 (some centres not stated)

Ki [11]: > 100000 nM
Compound: O=S(=O)(Nc1cc(Sc2ccco2)c(O)c2ccccc12)c1cccs1

Ki [11]: 370 nM | GI50 (HL-60 [24]): 3150 nM
Compound: CC(=O)N1CCN(c2ccc(OCc3cccc(-c4ccc5c(-c6cccc(C(F)(F)F)c6)cn(CCC(=O)O)c5c4)c3)cc2)CC1

IC50 (MV4-11 [25]): 150 nM
Compound: CO[C@@]1(CN2CCN3CCCC[C@@H]3C2)/C=C/C[C@H](C)[C@@H](C)S(=O)(=O)NC(=O)c2ccc3c(c2)N(C[C@@H]2CC[C@H]21)C[C@@]1(CCCc2cc(Cl)ccc21)CO3
IC50 (OPM-2): 50 nM

Ki [11]: 8850 nM | Ki [12]: 12900 nM
Compound: Cc1cc(OCCCn2ccc3cc(C(=O)O)ccc32)cc(C)c1Cl

Compound: Cc1cc2c(C(C)C)c(O)c(O)cc2c(O)c1-c1c(C)cc2c(C(C)C)c(O)c(O)cc2c1O [APOGOSSYPOL]
IC50 [26]: 2800 nM

Compound: Cc1c2c(nn1C)CSCc1cc(n(C)n1)CSc1cc(c3ccccc3c1)OCCCc1c(C(=O)O)n(C)c3c-2c(Cl)ccc13 [AZD-5991]
EC50 (MOLP-8): > 16000 nM

Ki [11]: > 1000 nM | Ki (Bcl-2-like protein 1 [2]): > 1000 nM | Ki [12]: 200 nM
Compound: COC1=CC(c2cc3ccccc3[nH]2)=N/C1=C\c1[nH]c(C)cc1C [OBATOCLAX]

IC50 (MV4-11 [25]): 150 nM
Compound: CO[C@H]1/C=C/C[C@H](C)[C@@H](C)S(=O)(=O)NC(=O)c2ccc3c(c2)N(C[C@@H]2CC[C@H]21)C[C@@]1(CCCc2cc(Cl)ccc21)CO3 [TAPOTOCLAX]

From ChEMBL document CHEMBL6103561, “Chemical dissection of selective myeloid leukemia-1 inhibitors: How they were found and evolved” (Eur J Med Chem, 2025)
